Source: PMC8260868, “Protocol for improving diffraction quality of leucyl-tRNA synthetase 1 with methylation and post-crystallization soaking and cooling in cryoprotectants” (STAR Protocols, 2021)

Experiments:
Assay type in all cases: binding
[1] = molecular target: T1, LARS1 (leucyl-tRNA synthetase 1) (Homo sapiens, UniProt Q9P2J5); test: X-ray crystallography, co-crystal; details: 2 mM leucine; bis-tris pH 6.5, 1.6 M ammonium sulfate; LARS1-Leu^syn, synthetic site
T1 construct: full length 1-1176, His-tagged in pQE-80L (BamHI/HindIII), E. coli Rosetta (DE3); tag removal not mentioned; one molecule in the asymmetric unit; lysines reductively methylated in LARS1-methyl (6KR7)
T1 sequence (Q9P2J5 whole entry): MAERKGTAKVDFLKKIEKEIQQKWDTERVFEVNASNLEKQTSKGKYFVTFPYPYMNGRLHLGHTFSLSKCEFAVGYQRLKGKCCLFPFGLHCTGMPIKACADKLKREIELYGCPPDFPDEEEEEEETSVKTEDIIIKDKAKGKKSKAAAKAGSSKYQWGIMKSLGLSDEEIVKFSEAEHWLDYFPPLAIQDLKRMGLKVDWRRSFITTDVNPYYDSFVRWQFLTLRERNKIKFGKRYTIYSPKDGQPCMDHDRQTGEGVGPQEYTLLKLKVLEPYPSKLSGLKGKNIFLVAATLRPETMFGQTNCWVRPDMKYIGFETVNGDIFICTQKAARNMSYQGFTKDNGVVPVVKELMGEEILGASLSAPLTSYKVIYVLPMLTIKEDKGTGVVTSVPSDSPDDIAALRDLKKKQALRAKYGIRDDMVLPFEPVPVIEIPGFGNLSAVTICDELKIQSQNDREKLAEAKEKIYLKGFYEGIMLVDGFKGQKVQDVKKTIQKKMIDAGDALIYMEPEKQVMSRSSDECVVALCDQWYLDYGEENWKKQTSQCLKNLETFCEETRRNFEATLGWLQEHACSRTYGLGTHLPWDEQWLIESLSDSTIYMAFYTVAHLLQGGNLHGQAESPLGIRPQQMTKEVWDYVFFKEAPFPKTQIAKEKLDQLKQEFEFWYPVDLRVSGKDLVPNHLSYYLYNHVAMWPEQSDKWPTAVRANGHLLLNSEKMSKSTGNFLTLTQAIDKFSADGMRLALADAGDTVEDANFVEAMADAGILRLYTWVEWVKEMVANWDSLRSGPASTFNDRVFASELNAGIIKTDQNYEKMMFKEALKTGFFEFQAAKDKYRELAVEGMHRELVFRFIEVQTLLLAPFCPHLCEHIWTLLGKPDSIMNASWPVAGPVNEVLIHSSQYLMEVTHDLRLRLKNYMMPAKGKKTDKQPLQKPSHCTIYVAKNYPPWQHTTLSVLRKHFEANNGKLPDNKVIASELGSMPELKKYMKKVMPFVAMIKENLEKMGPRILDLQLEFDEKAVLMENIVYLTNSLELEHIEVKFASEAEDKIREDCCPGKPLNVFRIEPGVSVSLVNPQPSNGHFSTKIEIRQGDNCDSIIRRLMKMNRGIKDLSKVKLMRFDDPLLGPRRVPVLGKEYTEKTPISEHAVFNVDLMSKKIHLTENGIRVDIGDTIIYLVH

[2] = molecular target: T1, LARS1 (leucyl-tRNA synthetase 1); test: intrinsic-fluorescence DSF (Tycho NT.[…]); details: 2, 5, 10, 20 mM leucine; Tris-HCl pH 7.5, 150 mM NaCl, 5 mM MgCl2, 2 mM DTT, 0.1% Tween-20; 1 mg/mL LARS1
[3] = molecular target: T1, LARS1 (leucyl-tRNA synthetase 1); test: microscale thermophoresis (Monolith NT.[…], RED-tris-NTA labelled His-LARS1)

For CC(C)C[C@H](N)C(=O)O [L-Leucine], the “X-ray crystallography, co-crystal” value [1] was “prepare LARS1-Leu^syn crystals subsequently deposited in PDB with the code 6KQY”, the Ti [2] was “LARS1 was incubated with leucine and the inflection temperature (Ti) was measured” and the Kd [3] was 119 ± 63.1 µM.
